experiment: N-Nitroso-varenicline content in individual component (LCMS); assay type: physicochemical; conditions: not given
Method: Liquid chromatography—mass spectrometry (LCMS) method development for NVC. Ultra-pressure liquid chromatography (UPLC) was used to detect NVC in samples. An ACQUITY™ UPLC™ H-Class PLUS System was utilized with the following configuration. The needle was washed with 80:20 methanol:water and the sample temperature was 10° C. The injection volume was 25 μL and a WATERS™ Acquity UPLC BEH Phenyl 1.7 μm 2.1×100 mm column was used having a column temperature of 30° C. Mobile phase A was 0.1% formic acid in water, and mobile phase B was acetonitrile. A 0.5 mL/min flow rate was utilized. Table 1 and Table 2, shown below, illustrate gradient method parameters and LCMS method validation for NVC, respectively.
Screening excipients for varenicline. Excipients were screened to determine which excipients were promoting nitroso impurities. Varenicline and excipients were physically mixed in 1:1 weight ratio and exposed to 40° C./75% RH for 4 weeks (Table 3 and Table 4).

Compound	N-Nitroso-varenicline [ng]
Magnesium Stearate	0
7,8,9,10-tetrahydro-6,10-methano-6H-pyrazino(2,3-h)(3)benzazepinex [Varenicline Tartrate, reference compound]	0
O.OC[C@H]1O[C@@H](O[C@H]2[C@H](O)[C@@H](O)C(O)O[C@@H]2CO)[C@H](O)[C@@H](O)[C@H]1O (stereo partly drawn) [Lactose Monohydrate]	0

experiment: not given; conditions: FDA recommended limit; cited from earlier work

Compound	Acceptable daily intake limit (FDA) [ng/day]
CC(C)N(N=O)C(C)C [NDIPA, N-nitrosodiisopropylamine]	26.5
O=NN1CC2CC(C1)c1cc3nccnc3cc12 [NVC, N-nitroso-varenicline]	37
CN(C)N=O [NDMA, N-nitrosodimethylamine]	96
CCN(CC)N=O [NDEA, N-nitrosodiethylamine]	26.5
CN(CCCC(=O)O)N=O [NMBA, N-nitroso-N-methyl-4-aminobutanoic acid]	96
CCN(N=O)C(C)C [NIPEA, N-nitrosoisopropylethyl amine]	26.5

From patent US20230148226A1, “COMPOSITIONS OF STABLE FORMULATIONS OF VARENICLINE SALT OR BASE FORM WITH CONTROL ON NITROSO IMPURITIES” (The Texas A&M University System, priority 2021, published 2023)
